We go through 15 substances from patent publication US20060293227A1, “Cosmetic compositions and methods using transforming growth factor-beta mimics” (priority 2005, published 2006).

Where no end group is shown, it is not given here. [ ]: non-standard residue; d: D form. NMeA = CN[C@@H](C)C(=O)O; Abu = CC[C@H](N)C(=O)O; Aib = CC(C)(N)C(=O)O

In series [1] the test system is Mv-1-Lu mink lung epithelial cells. Description: Inhibition of DNA synthesis ([3H]thymidine incorporation) of Mv-1-Lu mink lung epithelial cells. In kind it is cell-based. The settings on record: for Inhibition of DNA synthesis / proliferation of Mv-1-Lu cells (in words): thymidine incorporation, cytomodulin at 10^-9 to 10^-6 M; for Inhib by new peptide/Inhib by cytomodulin: 3H-thymidine incorporation, MV-1-Lu cells, cytomodulin at same concentration; for 3H-Radioactivity / % Inhibition of incorporation of 3H-thymidine: MV-1 Lu cells. The procedure: The effect of TGF-β and cytomodulin were evaluated by determining the rate of […] incorporation into total acid-insoluble DNA and cell number. See generally, Sampath et al., J. Biol. Chem., 267, pp. 20352-20362 (1992). DNA synthesis rates were determined in triplicate cultures after 24 hour treatment with various concentrations (10^−9 M to 10^−6 M) of either TGF-β or cytomodulin (which was synthesized by the Merrifield method) by adding [methyl-^3H]thymidine (2uCi/ml, 80 Ci/mmol) for 6 hours before the termination of the culture. Incorporation was terminated by aspiration of the medium, and after washing three times with phosphate-buffered saline, the trichloroacetic acid (10%)-precipitated radioactive DNA was extracted with 1.0% (w/v) sodium dodecyl sulfate, 0.1 M NaOH and quantitated by liquid scintillation counting. For cell number determination, 1×10^5 cells were plated in flasks in MEM containing 10% FBS, and after 24 hours, the growth medium was replaced with serum-free medium containing various conceptions of TGF-β and cytomodulin. Triplicate cultures were harvested every 24 hours for the duration of 7 days, and the cell number was determined by counting cells released by trypsin digestion in a fixed volume hemacytometer.
The numbers shown at the various concentration are the ratio of the inhibition rate of the peptide being tested over the inhibition rate of cytomodulin (SEQ ID NO: 1) at the same concentration.
Tests for bioactivity were conducted as described above for DNA inhibition. In summary, the cytomodulin analogs listed in Table 3 were all found active as agonists and thus, as defined herein, are considered TGF-β mimics.
(Uptake of a labelled nucleoside into DNA is a usual measure of proliferation.)

Series [2] deals with NRK-49 F fibroblasts. Description: Growth and colony formation by NRK-49 F fibroblasts in soft agar. The series is classed as cell-based. The settings on record: 100 nM in Example 2, with EGF and PDGF. The procedure:
The original assay for TGF-β, the ability to promote anchorage independent growth of normal fibroblasts is still one of the hallmarks of TGF-β activity. NRK-49 F fibroblasts were grown at 37° C. in DEM supplemented with 10% fetal calf serum. […] To this, either 100 nM TGF-β (positive control) or 100 nM cytomodulin was added. NRK49 F fibroblasts (5×10^4 cells/mi) were mixed with 0.3% agar were plated on the bottom of 35 mm culture dishes. Colony formation was observed starting on day 3 of culture.

Series [3] concerns human osteogenic sarcoma (HOS) cell line. Nature of the series: Expression of type I collagen, TGF-β, alkaline phosphatase and osteonectin in HOS cells. In kind it is cell-based.
The subject of the next series is human dermal fibroblasts. Description: Expression of type I collagen, TGF-β and collagenase in human dermal fibroblasts. The series is classed as cell-based. The settings on record: for Expression of TGF-β / Expression of collagenase: human dermal fibroblasts; for Expression of type I collagen: human dermal fibroblasts (primary cultures of neo-natal cells for cytomodulin).

The next series has as its system TGF-β activity. Nature of the series: TGF-β like activity, overall statement from the assays used. The series is classed as cell-based. The settings on record: by the assays used.
Series [4] concerns NRK-49 F fibroblasts. The settings on record: literature statement (Massagu, J. Biol. Chem. 1984); cited from earlier work.
In series [5] the test system is skin. Details: species or system human. The settings on record: in vivo. An excerpt:
A person, with very dry, wind-burnt skin, many fine lines, and the beginning of wrinkles, applied a lotion comprising cytomodulin (SEQ ID NO: 1) at a concentration of about 0.001% on left side of their face only, three days per week. […] Within 3 weeks there was a a noticeable difference between the two sides of the face, with the right side having more fine lines appearing much drier and weather-worn than the left (treated) side. […] The subject stopped application after 3 months because of the difference in the appearance of the two side of the face A person applied a lotion comprising cytomodulin (SEQ ID NO: 1) at a concentration of about 0.001% on right side of their neck only, daily. […] The right side of the neck is noticeably different than the left side of the neck. […] A person with noticebly wrinkled and thickened skin on the neck applied a lotion comprising cytomodulin (SEQ ID NO: 1) at a concentration of about 0.001% to their neck once every four days. The subject also used Lancome makeup with sunscreen and Oil of Olay moisturizer for sensitive skin.

The subject of series [6] is skin. Details: species or system human. The settings on record: in vivo. From the text: A person, of light complexion, applied a lotion comprising cytomodulin (SEQ ID NO: 1) at a concentration of about 0.001%, in EUCERIN™, to one side of their face a at a frequency of 1-2 times per week, typically at night before sleep, leaving uncovered while leaving the other side of their face without application of the TGF-β lotion. […] For example, crows feet became more shallow and the skin and face looked fuller and smoother. Color and skin tone became more youthful in appearance. […] After 18 days of treatment, the difference in appearance between the treated and untreated sides of the face was noticeable enough that the subject began to apply the topical composition to the entire face.
The same subject applied the CM-1 lotion to the back of one hand daily, while leaving the back of the other hand untreated. The treatment continued for several weeks.
The source holds these as a separate data set.

A further series has as its system eyelids. Details: species or system human. The settings on record: in vivo. An excerpt:
A person, applied a lotion comprising cytomodulin (SEQ ID NO: 1) at a concentration of about 0.001%, to their eyelids twice per week for 2 months.

Consider L-I-A-E-A-K (LIAEAK) [L2], for which the “Inhibition of DNA synthesis / proliferation of Mv-1-Lu cells (in words)” value in series [1] is on record as “inhibited the proliferation”. The “Growth and colony formation in soft agar” value with NRK-49 F fibroblasts [2] is on record as “promoted the growth”. Moreover, in series [3], the “Expression of TGF-β” value is “increased the expression”, the “Expression of alkaline phosphatase” value was “increased the expression” and the “Expression of type I collagen” value is on record as “increased the expression”. Further, in the series on human dermal fibroblasts, the “Expression of TGF-β” value was “increased the expression”, the Expression of collagenase result is listed as “decreased the expression” and the “Expression of type I collagen” value is listed as “increased the expression”. For the same substance, the “TGF-β like activity (overall)” value in the series with TGF-β activity was “at least as much TGF-β like activity as cytomodulin”.
Turning to L-I-A-G-E-G (LIAGEG) [SEQ ID NO: 14], the “Inhib by new peptide/Inhib by cytomodulin” value (“Inhib by new peptide/Inhib” below) is recorded as 0.66 in series [1] (concentration 1 nM), 0.85 in series [1] (concentration 10 nM), 1.41 in [1] (concentration 100 nM) and 1.88 in series [1] (concentration 1000 nM).
Regarding “L-I-(Nme-A)-E-A-K (LI[NMeA]EAK) [SEQ ID NO: 5]”, the 3H-Radioactivity in series [1] (peptide 1 nM) is 1.61 10^3 dpm; in [1] (peptide 5 nM), 1.76 10^3 dpm; in series [1] (peptide 50 nM), 1.60 10^3 dpm; in series [1] (peptide 100 nM), 1.81 10^3 dpm; in series [1] (peptide 500 nM), 1.42 10^3 dpm. Moreover, the “% Inhibition of incorporation of 3H-thymidine” value (“% Inhibition” below) in series [1] (peptide 1 nM) worked out at 47%; in series [1] (peptide 5 nM) it was 42%; in [1] (peptide 50 nM), 41%; in series [1] (peptide 100 nM), 40%; in [1] (peptide 500 nM), 53%.
As for L-I-A-D-A-K (LIADAK) [SEQ ID NO: 9], the “Inhib by new peptide/Inhib” value in series [1] (concentration 1 nM) is 0.45; in series [1] (concentration 10 nM), 0.87; in series [1] (concentration 100 nM), 1.14; in series [1] (concentration 1000 nM), 1.25.
Regarding A-N-V-A-E-K (ANVAEK) [SEQ ID NO: 15], the “Inhib by new peptide/Inhib” value in [1] (concentration 10 nM) was 0.80; in [1] (concentration 100 nM), 1.00.
In the case of L-I-A-G-G-E (LIAGGE) [SEQ ID NO: 13], the “Inhib by new peptide/Inhib” value came out at 1.10 in series [1] (concentration 1 nM), 1.33 in series [1] (concentration 10 nM), 1.45 in series [1] (concentration 100 nM) and 1.90 in series [1] (concentration 1000 nM).
In the case of L-I-A-P-E-A (LIAPEA) [L1], in [1], the “Inhibition of DNA synthesis / proliferation of Mv-1-Lu cells (in words)” value was “inhibited the proliferation”. The “Growth and colony formation in soft agar” value in the series on NRK-49 F fibroblasts [2] was “promoted the growth”. In [3], the “Expression of TGF-β” value was “increased the expression”, the “Expression of alkaline phosphatase” value was “increased the expression” and the “Expression of type I collagen” value is listed as “increased the expression”. In the series on human dermal fibroblasts, the “Expression of TGF-β” value is “increased the expression”, the Expression of collagenase entry is “decreased the expression” and the “Expression of type I collagen” value is reported as “increased the expression”. Besides, in the series with TGF-β activity, the “TGF-β like activity (overall)” value is recorded as “at least as much TGF-β like activity as cytomodulin”.
In the case of TGF-β, the “Growth and colony formation in soft agar” value in the series on NRK-49 F fibroblasts [2] was “grew colonies”. The “Colony formation in the absence of EGF and PDGF” value with NRK-49 F fibroblasts [4] is given as “does not induce colony formation”.
As to “L-(Aib)-A-E-A-K (L[Aib]AEAK) [SEQ ID NO: 4]”, the 3H-Radioactivity is recorded as 2.31 10^3 dpm in series [1] (peptide 5 nM); 1.94 10^3 dpm in series [1] (peptide 50 nM); 1.44 10^3 dpm in series [1] (peptide 100 nM); 1.61 10^3 dpm in series [1] (peptide 500 nM); 2.60 10^3 dpm in [1] (peptide 1 mM (so in the source), control without peptide 3.57). Also, the “% Inhibition” value was 35% in series [1] (peptide 5 nM); 46% in series [1] (peptide 50 nM); 60% in [1] (peptide 100 nM); 55% in series [1] (peptide 500 nM); 27% in [1] (peptide 1 mM (so in the source)).
As for “ANVAENA [cytomodulin, Ala-Asn-Val-Ala-Glu-Asn-Ala]”, in the series on skin [5], the “Accidental contact of the lotion with the eyes” value was “no apparent problem or irritation”, the Adverse effects result is recorded as “No adverse effects” and the “Adverse effects (subject's report)” value is recorded as “no adverse effects”. The “Negative effects of application” value with skin [6] is listed as “No negative effects”. The Adverse effects result in the series with eyelids is on record as “No adverse effects”.
For L-I-A-Q-A-K (LIAQAK) [SEQ ID NO: 12], the “Inhib by new peptide/Inhib” value in series [1] (concentration 1 nM) came to 0.90; in [1] (concentration 10 nM), 1.10; in series [1] (concentration 100 nM), 0.80; in series [1] (concentration 1000 nM), 1.56.
Take “L-(Abu)-A-E-A-K (L[Abu]AEAK) [SEQ ID NO: 6]”: the results for the 3H-Radioactivity in [1] (peptide 1 nM) and in [1] (peptide 5 nM) were 2.02 10^3 dpm and 1.97 10^3 dpm, respectively. Besides, the “% Inhibition” value came out at 33% in [1] (peptide 1 nM) and 35% in [1] (peptide 5 nM).
For L-I-A-K-G-K (LIAKGK) [SEQ ID NO: 16], the “Inhib by new peptide/Inhib” value was 0.65 in series [1] (concentration 10 nM) and 0.67 in series [1] (concentration 100 nM).
For L-I-A-N-A-K (LIANAK) [SEQ ID NO: 10], the “Inhib by new peptide/Inhib” value in [1] (concentration 1 nM) was determined as 1.70; in series [1] (concentration 10 nM) it was 2.00; in series [1] (concentration 100 nM), 1.43; in series [1] (concentration 1000 nM) it was 3.05.
Taken in the same sequence, the figures for L-I-A-E-A-A (LIAEAA) [SEQ ID NO: 11] were 1.16, 1.00, 1.17 and 1.85.
